Laboratory results published in patent publication US20040241766A1, “Carbamazepine assay” (priority 2003, published 2004).
Several values for one entry are separate records, joined by “and”; a condition that tells them apart may be missing. Identical values can stand only once.

What was measured:
[1] = humans, serum concentration; cited from earlier work
[2] = Serum CBZ concentration in CBZ-treated rats (competitive avidin assay vs HPLC with UV detection); type: in vivo; settings: rat serum, 3.75 g CBZ/kg diet for 68 days, Serum #1-#3
Protocol: Biotinylated bovine serum albumin (BSA) was synthesized by mixing 50 mL of 10 g/L BSA in ice-cold 0.1 mol/L NaHCO3 (pH 7.5) with 5 mL of a 12 g/L N-hydroxysuccinimide ester (NHS-biotin) in dimethyl sulfoxide overnight at 4° C. The mixture was dialyzed for 48 h with gentle stirring at 4° C.
A flat bottom 96-well microtiter plate (Nunc Maxisorp, Fisher Scientific, Pittsburgh, Pa.) was coated with 200 μL of a 1:2 dilution of biotinylated BSA in coating buffer (50 mmol/L bicarbonate, pH 9.0) and incubated at 4° C. for at least 1 h (up to 48 h).
A 10 g/L stock of CBZ was made by dissolving CBZ in methanol and then this was diluted 1:2 in Hepes buffer (0.1 mol/L Hepes, 1 mol/L NaCl, pH 7.0) to make a concentration of 5 g/L. 5 μL of this stock was diluted in 295 μL serum (collected immediately after a rat had been killed by exsanguination and whole blood was allowed to clot 10 min before centrifugation at 10,000× g for 10 min, and serum recovered). […]
The coated flat bottom plate was washed three times with 0.05% (v/v) tween-20 and before the wells dried out, 100 μL of the contents of the U-bottom plate were added to the flat bottom plate and incubated for 45 min—up to 4 h. […] After 45 min, 50 μL of 2 mol/L H2SO4 was added to the wells and the absorbance was measured at 490-650 nm in a plate reader spectrophotometer (Molecular Devices, Sunnyvale, Calif.). […]

avidin = molecular target: T1, avidin (Gallus gallus, UniProt P02701); assay: HABA assay: displacement of HABA from avidin; type: binding
T1 construct: purchased Pierce Chemical Company
T1 sequence (P02701 25-152): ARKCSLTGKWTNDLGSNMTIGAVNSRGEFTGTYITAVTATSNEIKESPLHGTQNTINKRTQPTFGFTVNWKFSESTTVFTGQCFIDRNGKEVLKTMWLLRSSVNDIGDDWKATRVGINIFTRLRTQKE
Protocol: In order to determine whether CBZ can bind to avidin, a solution of 10 mg/L CBZ dissolved in methanol was used in a HABA assay (Pierce Chemical Company, Pittsburgh, Pa.). When [2-(4′-hydroxyazobenzene) benzoic acid (HABA) is added in excess of avidin (Pierce Chemical Company, Pittsburgh, Pa.), an absorption at 500 nm is observed and a change in color occurs from yellow to red. This absorption is decreased proportionately when biotin is added since biotin displaces the HABA dye due to its higher affinity for avidin. The assay can be performed in a single cuvette by noting the A500 of the avidin-HABA solution before and after addition of the biotin-containing sample; the change in absorbance can then be related to the amount of biotin in the sample by using the extinction coefficient of the complex.
This change in absorbance is equivalent to 0.17 μmoles biotin-competing capacity of CBZ/ml reaction mixture. This amount was present according to a calculation equation described by the manufacturer.

## NC(=O)N1c2ccccc2C=Cc2ccccc21 [CBZ, 5-carbamoyl-5H-dibenz[b,f]azepine]
[1]
  therapeutic range: 4 to 12 mg/L
[2]; HPLC with UV detection
  serum CBZ concentration, HPLC: 4.7 mg/L and 3.3 mg/L
[2]; avidin-HRP/biotinylated BSA competitive assay
  serum CBZ concentration, Competitive Assay: 4.8 mg/L and 3.8 mg/L and 3.0 mg/L
avidin; 10 mg/L CBZ in methanol added to avidin-HABA solution
  change in absorbance at 500 nm: 0.5633
avidin; HABA displacement
  binding to avidin relative to HABA: binds more tightly to avidin than does HABA
avidin; calculated from change in absorbance by manufacturer's equation, 10 mg/L CBZ
  biotin-competing capacity of CBZ/ml reaction mixture: 0.17 µmol
